How the values were obtained:
[1] = tested on: human colon cancer cell line (HCT116); experiment: Anti-tumor effect on subcutaneous transplant model of HCT116; assay type: in vivo, nude mouse; conditions: 6.25-200 mg/kg orally twice a day for 14 days
Description: Human non-small-cell lung cancer cell line PC9 (obtained from Immuno-Biological laboratories Co., Ltd.), human non-small-cell lung cancer cell line A549 (obtained from Dainippon Pharmaceutical), human colon cancer cell line WiDr (obtained from Dainippon Pharmaceutical) and human colon cancer cell line HCT116 (obtained from ATCC) were cultured in RPMI1640 (containing 10% FBS) in a 5% carbon dioxide incubator at 37° C. to about 80% confluence, and the cells were collected with trypsin-EDTA. Using a phosphate buffer for PC9, WiDr and HCT116 and a 50% matrigel-containing phosphate buffer for A549, 5×10^7 cells/mL suspensions were prepared, respectively. Then, 0.1 mL each of the resulting cell suspensions was subcutaneously transplanted to the side of a nude mouse.
For PC9, 8 days after the transplantation, E7820 was orally administered for 50 mg/kg, 100 mg/kg or 200 mg/kg twice a day for 14 days. For A549, 24 days after the transplantation, E7820 was orally administered for 50 mg/kg or 200 mg/kg twice a day for 7 days. For WiDr, 11 days after the transplantation, E7820 was orally administered for 50 mg/kg, 100 mg/kg or 200 mg/kg twice a day for 14 days. […]
The major and minor axes of tumors were measured with Digimatic caliper (Mitsutoyo), and tumor volumes and relative tumor volumes were calculated according to the following formulae. […]

[2] = tested on: EGFR1; experiment: EGFR1 expression level in cultured A549 (flow cytometry); assay type: cell-based, human; conditions: for EGFR1 expression level (% of control) A549: two days of culture, flow cytometry
Description: PC9 or A549 was suspended in RPMI1640 (containing 10% FBS) to 1×10^5 cells/ml. Then, 1 ml each of these suspensions was placed into each well of a 6-well plate and cultured in a 5% carbon dioxide incubator at 37° C. On the following day, 1 ml each of E7820 culture dilutions at respective concentrations (0-20 μM) was added to the cells in each well for further culture. After two days of culture, the cells were collected with trypsin-EDTA according to a routine procedure, which were suspended in PBS containing 0.5% BSA. Subsequently, an anti-EGFR1 antibody (BD Biosciences) was added to these suspensions and incubated at 4° C. for 30 minutes. Centrifugation and washing with PBS were carried out according to routine procedures to remove an excessive amount of the antibody. Then, an RPE-labeled anti-mouse IgG antibody was added to these suspensions and incubated at 4° C. for 30 minutes. Centrifugation and washing with PBS were carried out according to routine procedures to remove an excessive amount of the antibody. Finally, the EGFR1 expression level in PC9 and A549 were determined with FACSCalibur (Japan Becton, Dickinson and Company).

SMILES: Cc1ccc(NS(=O)(=O)c2cccc(C#N)c2)c2[nH]cc(C#N)c12 [E7820, N-(3-cyano-4-methyl-1H-indole-7-yl)-3-cyanobenzenesulfonamide]
- Anti-tumor effect (relative tumor volume) [1]: stronger anti-tumor effects
- EGFR1 expression level (% of control) A549 ([2]; A549, E7820 0.01 μM): 93 % of control
- EGFR1 expression level (% of control) A549 ([2]; A549, E7820 0.03 μM): 97 % of control
- EGFR1 expression level (% of control) A549 ([2]; A549, E7820 0.1 μM): 95 % of control
- EGFR1 expression level (% of control) A549 ([2]; A549, E7820 0.3 μM): 91 % of control
- EGFR1 expression level (% of control) A549 ([2]; A549, E7820 1 μM): 80 % of control
- EGFR1 expression level (% of control) A549 ([2]; A549, E7820 3 μM): 64 % of control
- EGFR1 expression level (% of control) A549 ([2]; A549, E7820 10 μM): 73 % of control
- Effect on EGFR1 expression level (in words) ([2]; cultured A549, flow cytometry): slightly decreased the EGFR1 expression level

From patent US20100291592A1, “NOVEL MARKER FOR SENSITIVITY AGAINST SULFONAMIDE COMPOUND” (priority 2006, published 2010)
